These results are taken from paper PMC11542720, “Modelling of chromatographic and electrophoretic behaviour of imidazoline and alpha adrenergic receptors ligands under different acid-base conditions” (ADMET & DMPK, 2024).

Where “and” joins values, the source holds several entries; their conditions need not be identical. Identical values can stand only once. Counter-ions that a name gives are not always drawn.

Series [1] can be described thus: RP-HPLC retention on XTerra RP18, methanol/buffer; extrapolated retention factor log kw and slope S. The format is physicochemical. Particulars: for log kw: intercept, extrapolated to 100 % buffer, methanol/buffer, 25 °C; for S (slope): slope of log k vs methanol volume fraction.
Experimental: All measurements were performed at 25°C with a constant flow rate of 0.8 mL min^-1 and UV detection in the range of 200-280 nm. The injection volume was 20 μL. […] The retention factor k was calculated for each mobile phase composition according to Equation (1):
where tr is the retention time of the tested compound and t0 is the dead volume measured with KNO3 as a non-retentive marker. The values corresponding to 100 % of the buffered eluent (log kw) were determined by extrapolation according to Equation (2):
where log kw is the intercept, S is the slope of the regression line, and φ is the volume fraction of the organic modifier in the mobile phase.
The retention behaviour in HPLC system was monitored by calculating extrapolated retention factors log kw corresponding to pure buffer as mobile phase.
Series [2] in a line: Capillary electrophoresis, effective electrophoretic mobility (acetone as EOF marker). Particulars: for µeff4.4 / μeff4.4 (effective electrophoretic mobility): pH 4.4; for µeff4.4 / µeff7.4 / µeff9.1: I = 25 mmol/L, 11 kV, 25 °C, three replicates; for µeff7.4 / μeff7.4 (effective electrophoretic mobility, text): pH 7.4; for µeff9.1 / μeff9.1 (effective electrophoretic mobility): pH 9.1. It is filed as physicochemical.
Experimental: All experiments were performed using the SpectraPhoresis 500-capillary electrophoresis system (Spectra Physics Analytical, USA) with UV detector. Data were recorded and analyzed using ChromQuest software version 4.0 (Thermo Finnigan, USA).
The separations were performed with an uncoated fused capillary (total length 31.5 cm, 50 μm id, effective length 24 cm, Polymicro Technologies, USA) applying a voltage of 11 kV and at 25 °C. The samples were injected hydrodynamically and detection was performed in the 200-280 nm range. The new capillary was rinsed stepwise with 0.1 M NaOH (15 min), water (10 min) and a running buffer (10 min). Finally, a 10 min high voltage was applied through the background electrolyte-filled capillary to equalize the inner surface, stabilize the electroosmotic flow and ensure good reproducibility of injections from run to run. […] Between runs, the capillary was rinsed with the background electrolyte for 1 minute.
where Lt is the total length of the capillary (cm), Leff is the effective length of the capillary (cm), U is the applied voltage (V), tm is the migration time of the analyte (s) and teof is the migration time of the electroneutral EOF marker acetone (s). The calculated μeff values (μeff4.4, μeff7.4 and μeff9.1) were used as dependent variables in QSMR analysis.

For series [3] the following is noted: potentiometric; ref 2 (Supplement reference list); cited from earlier work.

For `N=C(N)NC(=O)c1nc(Cl)c(N)nc1N` [Amiloride, Amiloride hydrochloride], in series [1] (pH 4.4), the log kw is given as 1.11 ± 0.04 and the “S (slope)” value was -3.31 ± 0.09. Besides, in series [1] (pH 7.4), the log kw was 1.05 ± 0.04 and the “S (slope)” value is given as -3.23 ± 0.12. In series [1] (pH 9.1), the log kw was 0.98 ± 0.04 and the “S (slope)” value was -2.74 ± 0.11. Besides, in series [2], the µeff4.4 is 25.939 ± 0.080 10^-5 cm^2 V^-1 s^-1, the µeff7.4 is reported as 21.786 ± 0.082 10^-5 cm^2 V^-1 s^-1 and the µeff9.1 is listed as 6.416 ± 0.022 10^-5 cm^2 V^-1 s^-1.
With `Brc1c(NC2=NCCN2)ccc2nccnc12` [Brimonidine, brimonidine hydrochloride], the pKa experimental in series [3] was 7.50. For the same compound, in series [1] (pH 4.4), the log kw is listed as 0.99 ± 0.03 and the “S (slope)” value is -4.78 ± 0.21. Further, in series [1] (pH 7.4), the log kw is 1.08 ± 0.03 and the “S (slope)” value is -3.20 ± 0.12. Further, in series [1] (pH 9.1), the log kw is 1.26 ± 0.07 and the “S (slope)” value is on record as -3.23 ± 0.19. In addition, in series [2], the µeff4.4 was 23.357 ± 0.043 10^-5 cm^2 V^-1 s^-1, the µeff7.4 was 13.247 ± 0.200 10^-5 cm^2 V^-1 s^-1, the “μeff9.1 (effective electrophoretic mobility)” value was “zero” and the µeff9.1 was 0.000 ± 0.000 10^-5 cm^2 V^-1 s^-1.
Consider `COc1ccccc1OCCNCC(O)COc1cccc2[nH]c3ccccc3c12` (stereo not shown) [Carvedilol, carvedilol], for which the log kw was 3.75 ± 0.04 in series [1] (pH 4.4); 3.75 in series [1] (pH 4.4, listed as carvedilol); 4.15 ± 0.08 in series [1] (pH 7.4); 4.21 ± 0.10 in series [1] (pH 9.1). The “S (slope)” value is listed as -5.84 ± 0.07 in series [1] (pH 4.4), -5.44 ± 0.13 in series [1] (pH 7.4) and -5.56 ± 0.18 in series [1] (pH 9.1). For the same compound, the µeff4.4 in series [2] is listed as 18.061 ± 0.029 10^-5 cm^2 V^-1 s^-1. Further, in series [2], the µeff7.4 was 13.057 ± 0.052 10^-5 cm^2 V^-1 s^-1. In series [2], the µeff9.1 was 1.693 ± 0.071 10^-5 cm^2 V^-1 s^-1.
Turning to `Clc1cccc(Cl)c1N=C1NCCN1` [Clonidine, Clonidine hydrochloride], in series [1] (pH 4.4), the log kw is reported as 0.82 ± 0.02 and the “S (slope)” value is recorded as -2.74 ± 0.05. In addition, in series [1] (pH 7.4), the log kw is listed as 0.98 ± 0.01 and the “S (slope)” value was -1.82 ± 0.02. In series [1] (pH 9.1), the log kw is reported as 1.47 ± 0.01 and the “S (slope)” value was -2.71 ± 0.03. Moreover, in series [2], the µeff4.4 was 25.952 ± 0.084 10^-5 cm^2 V^-1 s^-1, the µeff7.4 was 19.607 ± 0.132 10^-5 cm^2 V^-1 s^-1 and the µeff9.1 is reported as 2.575 ± 0.060 10^-5 cm^2 V^-1 s^-1.
As to `C[C@@H]1CCC[C@H](C)N1NC(=O)c1ccc(Cl)c(S(N)(=O)=O)c1` [Clopamide, clopamide], in series [1] (pH 4.4), the log kw is recorded as 2.00 ± 0.02 and the “S (slope)” value is on record as -3.61 ± 0.04. In series [1] (pH 7.4), the log kw was 1.99 ± 0.03 and the “S (slope)” value is on record as -3.59 ± 0.08. Also, in series [1] (pH 9.1), the log kw is reported as 1.87 ± 0.01 and the “S (slope)” value is recorded as -3.34 ± 0.02. In addition, in series [2], the “μeff4.4 (effective electrophoretic mobility)” value was 0 10^-5 cm^2 / V s and 0.000 ± 0.000 10^-5 cm^2 / V s; the µeff4.4 is 0.000 ± 0.000 10^-5 cm^2 V^-1 s^-1; the “μeff7.4 (effective electrophoretic mobility, text)” value is reported as “zero”; the µeff7.4 is reported as 0.000 ± 0.000 10^-5 cm^2 V^-1 s^-1. In series [2], the “μeff9.1 (effective electrophoretic mobility)” value is “negative values of effective mobility” and the µeff9.1 is -9.640 ± 0.053 10^-5 cm^2 V^-1 s^-1. Further, the “μeff7.4 (effective electrophoretic mobility, text)” value in series [2] (listed as clopamide) is recorded as 0 10^-5 cm^2 / V s.
As to `CN[C@@H](C)[C@H](O)c1ccccc1` [Ephedrine, ephedrine hydrochloride], in series [1] (pH 4.4), the log kw was 0.56 ± 0.02 and the “S (slope)” value is -2.41 ± 0.08. Further, in series [1] (pH 7.4), the log kw is listed as 0.57± 0.02 and the “S (slope)” value was -2.49 ± 0.09. Moreover, in series [1] (pH 9.1), the log kw is 1.01 ± 0.02 and the “S (slope)” value is listed as -2.52 ± 0.05. Also, in series [2], the µeff4.4 is 25.942 ± 0.032 10^-5 cm^2 V^-1 s^-1, the µeff7.4 is given as 23.199 ± 0.103 10^-5 cm^2 V^-1 s^-1 and the µeff9.1 is listed as 18.047 ± 0.070 10^-5 cm^2 V^-1 s^-1.
As to `N=C(N)NC(=O)Cc1c(Cl)cccc1Cl` [Guanfacine, guanfacine hydrochloride], in series [1] (pH 4.4), the log kw was 1.73 ± 0.01 and the “S (slope)” value is -3.47 ± 0.03. Also, in series [1] (pH 7.4), the log kw is 1.92 ± 0.12 and the “S (slope)” value was -3.21 ± 0.03. For the same compound, in series [1] (pH 9.1), the log kw is 2.00 ± 0.00 and the “S (slope)” value is recorded as -3.35 ± 0.01. Moreover, in series [2], the µeff4.4 is 24.242± 0.002 10^-5 cm^2 V^-1 s^-1; the “μeff7.4 (effective electrophoretic mobility, text)” value is 5.083 ± 0.025 10^-5 cm^2 / V s; the µeff7.4 is given as 5.083 ± 0.025 10^-5 cm^2 V^-1 s^-1; the “μeff9.1 (effective electrophoretic mobility)” value is given as “zero”. Besides, the µeff9.1 in series [2] is recorded as 0.000 ± 0.000 10^-5 cm^2 V^-1 s^-1.
With `CC1Cc2ccccc2N1NC(=O)c1ccc(Cl)c(S(N)(=O)=O)c1` (stereo not shown) [Indapamide, indapamide], in series [1] (pH 4.4), the log kw is listed as 2.69 ± 0.02 and the “S (slope)” value is -4.16 ± 0.06. For the same compound, in series [1] (pH 7.4), the log kw was 2.55 ± 0.02 and the “S (slope)” value is -4.19 ± 0.04. For the same compound, in series [1] (pH 9.1), the log kw is given as 2.35 ± 0.03 and the “S (slope)” value is given as -3.78 ± 0.06. Besides, in series [2], the “μeff4.4 (effective electrophoretic mobility)” value is 0 10^-5 cm^2 / V s and 0.000 ± 0.000 10^-5 cm^2 / V s; the µeff4.4 is on record as 0.000 ± 0.000 10^-5 cm^2 V^-1 s^-1; the µeff7.4 is recorded as 0.000 ± 0.000 10^-5 cm^2 V^-1 s^-1; the “μeff9.1 (effective electrophoretic mobility)” value is recorded as “negative values of effective mobility”. Further, the µeff9.1 in series [2] is listed as -10.382 ± 0.053 10^-5 cm^2 V^-1 s^-1.
As for `Cc1cc2c(s1)Nc1ccccc1N=C2N1CCN(C)CC1` [Olanzapine, olanzapine], in series [1] (pH 4.4), the log kw was 1.64 ± 0.04 and the “S (slope)” value is listed as -3.37 ± 0.11. For the same compound, in series [1] (pH 7.4), the log kw was 3.23 ± 0.07 and the “S (slope)” value is -4.37 ± 0.12. For the same compound, in series [1] (pH 9.1), the log kw is given as 3.28 ± 0.08 and the “S (slope)” value is listed as -4.46 ± 0.14. Besides, in series [2], the “μeff4.4 (effective electrophoretic mobility)” value was 33.632 ± 0.036 10^-5 cm^2 / V s, the µeff4.4 is 33.632 ± 0.036 10^-5 cm^2 V^-1 s^-1, the µeff7.4 is recorded as 10.679 ± 0.039 10^-5 cm^2 V^-1 s^-1 and the µeff9.1 is 1.241 ± 0.029 10^-5 cm^2 V^-1 s^-1.
For `CN[C@@H](C)[C@@H](O)c1ccccc1` [Pseudoephedrine, pseudoephedrine hydrochloride], in series [1] (pH 4.4), the log kw is listed as 0.60 ± 0.03 and the “S (slope)” value was -2.60 ± 0.10. In addition, in series [1] (pH 7.4), the log kw was 0.61 ± 0.02 and the “S (slope)” value is -2.67 ± 0.12. In series [1] (pH 9.1), the log kw is 1.10 ± 0.02 and the “S (slope)” value is given as -2.72 ± 0.07. Moreover, in series [2], the µeff4.4 was 26.633 ± 0.043 10^-5 cm^2 V^-1 s^-1, the µeff7.4 is on record as 23.691 ± 0,051 10^-5 cm^2 V^-1 s^-1 and the µeff9.1 was 9.299 ± 0.058 10^-5 cm^2 V^-1 s^-1.
For `C1COC(NC(C2CC2)C2CC2)=N1` [Rilmenidine, rilmenidine hemifumarate], in series [1] (pH 4.4), the log kw is listed as 0.92 ± 0.03 and the “S (slope)” value was -2.88 ± 0.09. In series [1] (pH 7.4), the log kw was 0.90 ± 0.03 and the “S (slope)” value is -2.35 ± 0.11. Further, in series [1] (pH 9.1), the log kw is 1.48 ± 0.02 and the “S (slope)” value is given as -2.96 ± 0.06. Besides, in series [2], the µeff4.4 is reported as 25.350 ± 0.121 10^-5 cm^2 V^-1 s^-1, the µeff7.4 is reported as 22.551 ± 0.029 10^-5 cm^2 V^-1 s^-1 and the µeff9.1 is 14.065 ± 0.214 10^-5 cm^2 V^-1 s^-1.
On to `CCOc1ccccc1OCCN[C@H](C)Cc1ccc(OC)c(S(N)(=O)=O)c1` [Tamsulosin, tamsulosin hydrochloride], for which, in series [1] (pH 4.4), the log kw is given as 2.22 ± 0.05 and the “S (slope)” value is -4.73 ± 0.13. Further, in series [1] (pH 7.4), the log kw is given as 2.75 ± 0.04 and the “S (slope)” value is listed as -4.51 ± 0.10. Also, in series [1] (pH 9.1), the log kw is listed as 3.06 ± 0.09 and the “S (slope)” value is listed as -4.97 ± 0.20. For the same compound, in series [2], the µeff4.4 is listed as 17.310 ± 0.002 10^-5 cm^2 V^-1 s^-1, the µeff7.4 was 14.444 ± 0.058 10^-5 cm^2 V^-1 s^-1 and the µeff9.1 is 2.472 ± 0.133 10^-5 cm^2 V^-1 s^-1.
`Clc1ccc2nsnc2c1NC1=NCCN1` [Tizanidine, tizanidine hydrochloride]: in series [1] (pH 4.4), the log kw is given as 0.74 ± 0.02 and the “S (slope)” value is on record as -2.65 ± 0.06. In series [1] (pH 7.4), the log kw is recorded as 1.12 ± 0.01 and the “S (slope)” value is recorded as -2.23 ± 0.03. In addition, in series [1] (pH 9.1), the log kw is recorded as 1.34 ± 0.01 and the “S (slope)” value was -2.63 ± 0.04. Further, in series [2], the µeff4.4 is given as 24.770 ± 0.035 10^-5 cm^2 V^-1 s^-1, the µeff7.4 is listed as 12.077 ± 0.042 10^-5 cm^2 V^-1 s^-1, the “μeff9.1 (effective electrophoretic mobility)” value is “zero” and the µeff9.1 was 0.000 ± 0.000 10^-5 cm^2 V^-1 s^-1.
In the case of `Cc1cc(C(C)(C)C)cc(C)c1CC1=NCCN1` [Xylometazoline, xylometazoline hydrochloride], in series [1] (pH 4.4), the log kw was 2.61 ± 0.00 and the “S (slope)” value is on record as -4.22 ± 0.01. In series [1] (pH 7.4), the log kw is on record as 2.59 ± 0.02 and the “S (slope)” value was -4.14 ± 0.04. Besides, in series [1] (pH 9.1), the log kw is on record as 2.79 ± 0.08 and the “S (slope)” value is -4.17 ± 0.16. In series [2], the µeff4.4 is listed as 21.032 ± 0.019 10^-5 cm^2 V^-1 s^-1, the µeff7.4 is 19.943 ± 0.006 10^-5 cm^2 V^-1 s^-1 and the µeff9.1 is on record as 20.627 ± 0.015 10^-5 cm^2 V^-1 s^-1.
